In ChEMBL document CHEMBL5727118, “Benzoic acid derivatives of bile acid as FXR/TGR5 agonists and methods of use thereof” (2019) one finds EC50 data, which are given here for one compound.

Molecules are shown by their SMILES. pEC50: −log10 of the molar value.

This experiment concerns the target T1, Bile acid receptor (Homo sapiens, UniProt Q96RI1).
T1 sequence (Q96RI1 whole entry): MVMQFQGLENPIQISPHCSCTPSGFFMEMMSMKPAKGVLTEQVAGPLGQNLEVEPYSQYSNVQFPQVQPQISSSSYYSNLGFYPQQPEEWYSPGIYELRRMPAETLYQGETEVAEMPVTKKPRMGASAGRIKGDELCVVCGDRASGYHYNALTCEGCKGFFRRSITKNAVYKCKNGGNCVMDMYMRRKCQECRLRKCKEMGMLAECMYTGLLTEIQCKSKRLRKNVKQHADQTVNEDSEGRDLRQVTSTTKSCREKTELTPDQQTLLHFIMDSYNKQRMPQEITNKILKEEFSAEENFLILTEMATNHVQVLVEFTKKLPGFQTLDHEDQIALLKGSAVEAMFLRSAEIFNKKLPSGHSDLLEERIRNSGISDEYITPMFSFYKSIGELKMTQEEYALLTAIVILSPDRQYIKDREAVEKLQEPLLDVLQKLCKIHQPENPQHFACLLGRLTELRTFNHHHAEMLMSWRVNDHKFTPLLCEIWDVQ
The experiment can be described thus: FXR Reporter Assay kit purchased from Indigo Bioscience (Catalogue number: IB00601) to determine the potency and efficacy of compound developed by Enanta that can induce FXR activation. The principle application of this reporter assay system is to quantify functional activity of human FXR. The assay utilizes non-human mammalian cells, CHO (Chinese hamster ovary) cells engineered to express human NR1H4 protein (referred to as FXR). Reporter cells also incorporate the cDNA encoding beetle luciferase which catalyzes the substrates and yields photon emission. Luminescence intensity of the reaction is quantified using a plate-reading luminometer, Envision. Reporter Cells include the luciferase reporter gene functionally linked to an FXR responsive promoter. Thus, quantifying changes in luciferase expression in the treated reporter cells provides a sensitive surrogate measure of the changes in FXR activity. […] The assay is according to the manufacturer's instructions. In brief, the assay was performed in white, 96 well plates using final volume of 100 ul containing cells with different doses of compounds. Retrieve Reporter Cells from −80° C. storage. Perform a rapid thaw of the frozen cells by transferring a 10 ml volume of 37° C. cell recovery medium into the tube of frozen cells. Recap the tube of Reporter Cells and immediately place it in a 37° C. water bath for 5-10 minutes. […]. The class given is cell-based. A general note: Reporter assays use an easily measured gene product as a stand-in for the process of interest.

One may read the pEC50 as the EC50 on a negative log10 scale, so that one unit is a factor of ten. Low readings indicate a large EC50, high ones a small EC50. Consider `CC[C@H]1[C@@H](O)[C@@H]2[C@H](CC[C@]3(C)[C@@H]([C@H](C)C/C=C/c4ccc(F)cc4C(=O)O)CC[C@@H]23)[C@@]2(C)CC[C@@H](O)C[C@@H]12`, for which the pEC50 is greater than 7.00.
